Where “and” joins values, the source holds several entries; their conditions need not be identical. Identical values can stand only once.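 Five concentrations, 48 hours, 96-well plates. GI50 marks 50% less growth. The concentration for full growth arrest is given as TGI.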
Legend:
Experiment in all cases: DTP human tumour cell line panel, 48 h
ACHN renal = tested on: ACHN renal
EKVX NSCLC = tested on: EKVX NSCLC
HCC-2998 colon = tested on: HCC-2998 colon
HL-60(TB) leukemia = tested on: HL-60(TB) leukemia
MALME-3M melanoma = tested on: MALME-3M melanoma
MDA-N = tested on: MDA-N
NCI-H522 lung = tested on: NCI-H522 lung
SF-295 CNS = tested on: SF-295 CNS
SK-MEL-28 melanoma = tested on: SK-MEL-28 melanoma
SK-OV-3 ovarian = tested on: SK-OV-3 ovarian

SMILES | TGI (ACHN renal) [µM] | TGI (EKVX NSCLC) [µM] | TGI (HCC-2998 colon) [µM] | TGI (HL-60(TB) leukemia) | TGI (MALME-3M melanoma) [µM] | TGI (MDA-N) | TGI (NCI-H522 lung) | TGI (SF-295 CNS) [µM] | TGI (SK-MEL-28 melanoma) [µM] | TGI (SK-OV-3 ovarian) [µM] | GI50 (HCC-2998 colon) [µM] | GI50 (HL-60(TB) leukemia) [µM] | GI50 (MALME-3M melanoma) [µM] | GI50 (MDA-N) [µM] | GI50 (NCI-H522 lung) [µM] | GI50 (SF-295 CNS) [µM] | GI50 (SK-OV-3 ovarian) [µM]
Cc1nc(C)c(N2CCN(CN)CC2)c(=O)[nH]1 | > 100 | > 100 | > 100 | > 100 µM | > 100 | > 100 µM | > 100 µM | > 100 | > 100 | > 100 |  |  |  |  |  |  | 
Cn1c2ccc(Cl)cc2c2ccc3c(c21)C(=O)C=CC3=O | > 10 | > 10 | > 10 | > 10 µM | > 10 | > 10 µM | > 10 µM | > 10 | > 10 | > 10 |  |  |  |  |  |  | 
CC(OP(=O)(O)O)C(N)C(=O)O (stereo not drawn) | > 100 | > 100 | > 100 | > 100 µM | > 100 | > 100 µM | > 100 µM | > 100 | > 100 | > 100 |  |  |  |  |  |  | 
O=c1[nH]cc(N=Cc2cc(Cl)ccc2O)c(=O)[nH]1 | 61.6 | > 100 | > 100 | 52.6 µM | 73.8 | > 100 µM | > 100 µM | 42.1 | 70.1 | 59.4 |  |  |  |  |  |  | 
O=C1C=C(N2CCN(c3ncccn3)CC2)C(=O)c2c(O)ccc(O)c21 | > 100 | > 100 | > 100 | > 100 µM | 46.6 | 31.3 µM | > 100 µM | > 100 | > 100 | > 100 |  |  |  |  |  |  | 
Cc1ccc(S(=O)(=O)OCCC2CN(C(=O)OCc3ccccc3)C(C)(C)O2)cc1 (stereo not drawn) | 64.9 | > 100 | 72.7 | 30 µM | 43.3 | > 100 µM | 20.1 µM | > 100 | 82.1 | > 100 |  |  |  |  |  |  | 
O=c1cc(N2CCOCC2)n2c(ccc3ccccc32)n1 | > 100 | > 100 | > 100 | > 100 µM | > 100 | 63 µM | > 100 µM | > 100 |  | > 100 |  |  |  |  |  |  | 
CC(C)OP(=O)(OC(C)C)C(C(C)C)N(C)C(N)=NC#N (stereo not drawn) | > 100 | > 100 | > 100 | > 100 µM | > 100 | > 100 µM | > 100 µM | > 100 | > 100 | > 100 |  |  |  |  |  |  | 
CCCC1=C(OC)C(=O)c2c(C)cc(Cl)nc2C1=O | 17.4 | 20.7 | 20.2 | 3.65 µM | 9.71 | 3.33 µM | 8.06 µM | 31.9 | 16.7 | 31 |  |  |  |  |  |  | 
COc1cccc(NC(=O)CC(=O)n2nc(-c3ccccc3)c(N=Nc3ccc(Cl)cc3)c2-c2ccccc2)c1 | > 100 | 92.8 | 64.5 | 56.1 µM | 78.8 | > 100 µM | 59.8 µM | > 88.8 | > 100 | > 79.9 |  |  |  |  |  |  | 
COC(=O)CCC(=O)NC1=C(Nc2ccccc2)C(=O)c2ccccc2C1=O | 29.5 | 34.2 | 37.9 | 13.5 µM | 5.61 | 3.59 µM | 29.2 µM | 29.9 | 17.7 | 30.9 |  |  |  |  |  |  | 
COc1ccc(/C=c2\[nH]c3nc(=O)c(N4CCCCC4)c(N)n3c2=O)cc1 | > 100 | > 100 | > 100 | > 100 µM | > 100 | > 100 µM | > 100 µM | > 100 | > 100 | > 100 |  |  |  |  |  |  | 
O=C1C(N2CCN(CCOCCO)CC2)=C(Cl)C(=O)c2ncccc21 | 33.4 | 35.1 | > 100 | 8.29 µM and 5.91 µM | 33.8 | 3.76 µM and 35 µM | 4.22 µM and 32.6 µM | > 100 | 43.7 | > 100 | > 100 | 2.24 | 19.3 | 19.4 | 17.7 | > 100 | > 100
O=C(O)CSC1=NNC2(C(=O)N1)c1ccccc1-c1ccccc12 | > 10 | > 10 | > 10 | > 10 µM | > 10 | > 10 µM | > 10 µM | > 10 | > 10 | > 10 |  |  |  |  |  |  | 
O=C1Nc2cccc(Cl)c2/C1=C\c1c(-c2ccccc2)nc2n1CCS2 | 32.3 | 74.7 | 46.7 | 41.3 µM | 46.3 | 40.6 µM | > 100 µM | > 100 | 44.7 | 65.9 |  |  |  |  |  |  | 
COc1ccc(-n2c(N)c(C#N)c(C#N)c2-c2ccco2)cc1 | > 100 | > 100 | > 100 | > 100 µM | > 100 | > 100 µM | > 100 µM | > 100 |  | > 100 |  |  |  |  |  |  | 
Cc1cc(C)c2c(c1)C/C(=C\c1cccc(C)c1C(=O)O)C2=O | > 100 | > 100 | > 100 | > 100 µM | > 100 | > 100 µM | > 100 µM | > 100 | > 100 |  |  |  |  |  |  |  | 
CCOC(=O)CCc1cn2cc(Br)nc(OC)c2n1 |  | > 100 | > 100 | > 100 µM | > 100 | 12.6 µM | > 100 µM | > 100 | > 100 | > 100 |  |  |  |  |  |  | 
